The first assay addresses T1, hAR (human androgen receptor) (Homo sapiens, UniProt P10275).
T1 construct: made in house; host or cells: baculovirus/Sf9 insect cells (crude extract)
T1 sequence (P10275 1-920): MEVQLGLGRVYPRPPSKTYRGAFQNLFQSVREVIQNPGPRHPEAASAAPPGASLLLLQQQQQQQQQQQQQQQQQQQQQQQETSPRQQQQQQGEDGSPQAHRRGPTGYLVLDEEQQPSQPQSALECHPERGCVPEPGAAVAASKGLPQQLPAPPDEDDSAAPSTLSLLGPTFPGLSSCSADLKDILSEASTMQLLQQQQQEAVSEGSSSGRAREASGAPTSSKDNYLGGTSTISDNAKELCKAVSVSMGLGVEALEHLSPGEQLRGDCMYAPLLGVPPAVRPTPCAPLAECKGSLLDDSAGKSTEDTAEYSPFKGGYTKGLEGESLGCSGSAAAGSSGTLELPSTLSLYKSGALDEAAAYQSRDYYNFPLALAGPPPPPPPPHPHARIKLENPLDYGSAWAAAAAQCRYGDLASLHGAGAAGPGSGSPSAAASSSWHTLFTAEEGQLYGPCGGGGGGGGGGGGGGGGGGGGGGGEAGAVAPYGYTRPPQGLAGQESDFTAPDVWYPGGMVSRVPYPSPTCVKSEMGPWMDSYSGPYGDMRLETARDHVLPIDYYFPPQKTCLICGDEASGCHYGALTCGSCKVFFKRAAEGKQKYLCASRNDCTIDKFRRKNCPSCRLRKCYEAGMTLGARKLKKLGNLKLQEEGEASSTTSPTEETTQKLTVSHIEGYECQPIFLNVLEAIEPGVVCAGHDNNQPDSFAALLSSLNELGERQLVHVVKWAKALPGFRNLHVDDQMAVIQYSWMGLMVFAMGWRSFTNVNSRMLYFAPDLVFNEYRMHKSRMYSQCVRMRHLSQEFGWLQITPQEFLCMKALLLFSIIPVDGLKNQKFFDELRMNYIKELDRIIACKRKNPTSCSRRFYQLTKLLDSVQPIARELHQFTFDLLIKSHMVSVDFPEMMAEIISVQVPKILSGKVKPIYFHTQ
The assay is described as follows: Competitive hAR binding assay with 3H-DHT tracer.
Details: not given
As to the method: The description below describes how the assay was carried out.
Competitive binding analysis was performed on baculovirus/Sf9 generated hAR extracts in the presence or absence of different concentrations of test agent and a fixed concentration of ^3H-dihydrotestosterone (3H-DHT) as tracer. […] Subsequently, the binding reactions are washed three times to completely remove excess unbound ^3H-DHT. hAR bound ^3H-DHT levels are determined in the presence of compounds (i.e. competitive binding) and compared to levels bound when no competitor is present (i.e. maximum binding). Compound binding affinity to the hAR is expressed as the concentration of compound at which one half of the maximum binding is inhibited.
One may read the IC50 as the concentration at which inhibition is half-maximal. As to `Cc1ccc(F)c(Oc2ccc(C#N)cc2Cl)c1F` [Example 6, 3-Chloro-(2,6-difluro-5-methyl-phenoxy)benzonitrile], the IC50 came to 59 nM.

As to `CCOc1ccccc1Oc1ccc(C#N)c(Cl)c1` [Example 70, 2-Chloro-4-(2-ethoxy-phenoxy)-benzonitrile], the IC50 was 19 nM.

Take `CC(N)c1cc(F)ccc1Oc1ccc(C#N)c(C(F)(F)F)c1` (stereo not drawn) [Example 122, 4-[2-(1-aminoethyl)-4-fluoro-phenoxy]-2-trifluoromethyl-benzonitrile]: the IC50 worked out at 2 nM.

The same assay, now with this note: baculovirus/Sf9 hAR extract, 1 nM 3H-DHT, one hour at 4° C; mean of multiple tests; read-out: AR Binding IC50.
Regarding `CCSc1ccccc1Oc1ccc(C#N)cc1Cl` [Example 1, 3-Chloro-4-(2-ethylsulfanyl-phenoxy)-benzonitrile], the IC50 amounted to 281 nM.

Turning to `N#Cc1ccc(Oc2ccccc2[N+](=O)[O-])c(Cl)c1` [Example 2, 3-Chloro-4-(2-nitro-phenoxy)-benzonitrile], the IC50 worked out at 472 nM.

`Cc1ccc(C)c(Oc2ccc(C#N)cc2Cl)c1` [Example 9, 3-Chloro-4-(2,5-dimethyl-phenoxy)-benzonitrile]: the IC50 stood at 356 nM.

On to `C=CCc1cccc(C)c1Oc1ccc(C#N)cc1Cl` [Example 11, 4-(2-Allyl-6-methyl-phenoxy)-3-chloro-benzonitrile], for which the IC50 turned out to be 242 nM.

On to `Cc1ccc(C(C)C)c(Oc2ccc(C#N)cc2Cl)c1` [Example 14, 3-Chloro-4-(2-isopropyl-5-methyl-phenoxy)-benzonitrile], for which the IC50 is 375 nM.

For the compound `CCN(CC)C(=O)c1ccccc1Oc1ccc(C#N)cc1Cl` [Example 18, 2-(2-Chloro-4-cyano-phenoxy)-N,N-diethyl-benzamide], the IC50 stood at 402 nM.

As for `Cc1ccc(Oc2ccc(C#N)cc2Cl)c(C)c1` [Example 21, 3-Chloro-4-(2,4-dimethyl-phenoxy)-benzonitrile], the IC50 was determined as 263 nM.

Take `COc1ccc(C)cc1Oc1ccc(C#N)cc1Cl` [Example 22, 3-Chloro-4-(2-methoxy-5-methyl-phenoxy)-benzonitrile]: the IC50 was found to be 491 nM.

Regarding `Cc1cccc(Oc2ccc(C#N)cc2Cl)c1` [Example 28, 3-Chloro-4-m-tolyloxy-benzonitrile], the IC50 came out at 412 nM.

With `N#Cc1ccc(Oc2ccc3c(c2)CCC3)cc1Cl` [Example 43, 2-Chloro-4-(indan-5-yloxy)-benzonitrile], the IC50 worked out at 439 nM.

For the compound `CCOC(=O)c1ccc(Oc2ccc(C#N)c(Cl)c2)c(OC)c1` [Example 55, 4-(3-Chloro-4-cyano-phenoxy)-3-methoxy-benzoic acid ethyl ester], the IC50 came to 300 nM.

With `Cc1ccc(-c2ccc(Oc3ccc(C#N)c(Cl)c3)c(C)c2)cc1` [Example 58, 2-Chloro-4-(3,4′-dimethyl-biphenyl-4-yloxy)-benzonitrile], the IC50 turned out to be 436 nM.

`Cc1ccc(Oc2ccc(C#N)c(Cl)c2)c(Cc2ccccc2)c1` [Example 62, 4-(2-Benzyl-4-methyl-phenoxy)-2-chloro-benzonitrile]: the IC50 is 326 nM.

Turning to `CCOc1ccccc1Oc1ccc(C#N)cc1Cl` [Example 71, 3-Chloro-4-(2-ethoxy-phenoxy)-benzonitrile], the IC50 was determined as 299 nM.

With `N#Cc1ccc(Oc2cccc3ccccc23)c(Cl)c1` [Example 72, 3-Chloro-4-(naphthalen-1-yloxy)-benzonitrile], the IC50 is 478 nM.

On to `Cc1ccc(Oc2ccc(C#N)c(Cl)c2)c(C(C)(C)C)c1` [Example 73, 4-(2-tert-Butyl-4-methyl-phenoxy)-2-chloro-benzonitrile], for which the IC50 was 253 nM.

With `COc1cc(C(C)=O)ccc1Oc1ccc(C#N)c(C(F)(F)F)c1` [Example 74, 4-(4-Acetyl-2-methoxy-phenoxy)-2-trifluoromethyl-benzonitrile], the half-inhibitory concentration (IC50) amounted to 1480 nM.

Turning to `CC(=O)c1ccc(Oc2ccc(C#N)c(C(F)(F)F)c2)cc1` [Example 75, 4-(4-Acetyl-phenoxy)-2-trifluoromethyl-benzonitrile], the IC50 turned out to be 443 nM.

For the compound `N#Cc1ccc(Oc2ccccc2[N+](=O)[O-])cc1C(F)(F)F` [Example 77, 4-(2-Nitro-phenoxy)-2-trifluoromethyl-benzonitrile], the IC50 is 458 nM.

For `CCN(CC)Cc1c(C)ccc(C)c1Oc1ccc(C#N)c(C(F)(F)F)c1` [Example 89, 4-(2-Diethylaminomethyl-3,6-dimethyl-phenoxy)-2-trifluoromethyl-benzonitrile], the IC50 is 255 nM.

Turning to `N#Cc1ccc(Oc2ccccc2OCc2ccccc2)cc1C(F)(F)F` [Example 92, 4-(2-Benzyloxy-phenoxy)-2-trifluoromethyl-benzonitrile], the IC50 is 361 nM.

In the case of `N#Cc1ccccc1Oc1ccc(C#N)c(C(F)(F)F)c1` [Example 112, 4-(2-Cyano-phenoxy)-2-trifluoromethyl-benzonitrile], the IC50 came out at 315 nM.

Take `C[C@H](O)CNC(=O)c1ccccc1Oc1ccc(C#N)c(C(F)(F)F)c1` [Example 113, 2-(4-Cyano-3-trifluoromethyl-phenoxy)-N-(2-hydroxy-propyl)-benzamide]: the IC50 amounted to 353 nM.

For `CC(C)(CO)CNC(=O)c1ccccc1Oc1ccc(C#N)c(C(F)(F)F)c1` [Example 114, 2-(4-Cyano-3-trifluoromethyl-phenoxy)-N-(3-hydroxy-2,2-dimethyl-propyl)-benzamide], the 50% inhibitory concentration (IC50) is 402 nM.

The values above are taken from patent US20090105349A1, “ANDROGEN MODULATORS” (WARNER-LAMBERT COMPANY LLC, priority 2004, published 2009).
